We go through 13 compounds from the OPERA property sets (Mansouri et al. 2018).

`C=CCNc1cc(-c2nc[nH]n2)ccn1` gave a lipophilicity (logP) of 1.26.
The value for `COCCNc1cc(-c2nnc(N)[nH]2)ccn1` was 0.94; that for `CNc1cc(-c2n[nH]c(N)n2)ccn1` was 0.69.
Compound `CCCCCCNc1cc(-c2n[nH]c(N)n2)ccn1` had a logP of 3.3.
The figure for `Cc1ccc(CNc2cc(-c3n[nH]c(N)n3)ccn2)cc1` is 2.69; for `Nc1nc(-c2ccnc(NCCc3ccccc3)c2)n[nH]1` it is 2.63.
The value for `Nc1cc(-c2nnc(N)[nH]2)ccn1` was 0.11; that for `CCCNc1cc(-c2nnc(N)[nH]2)ccn1` was 1.61.
The figure for `CCCCNc1cc(-c2n[nH]c(N)n2)ccn1` is 2.15; for `CCNc1cc(-c2nc(N)n[nH]2)ccn1` it is 1.13; for `Nc1n[nH]c(-c2ccnc(NCCO)c2)n1` it is 0.24.
As to `Nc1nc(-c2ccnc(NCCCc3ccccc3)c2)n[nH]1`, the logP is 3.05.
The figure for `CCCCCCCCCCNc1cc(-c2nnc(N)[nH]2)ccn1` is 4.07.

A word on the logP: it is a log measure of how a compound divides between an organic and an aqueous phase. A high value points to a more lipophilic compound.
